The term Kd denotes the free concentration of one partner at which half of the binding sites on the other are occupied at equilibrium, for simple one-to-one binding. Lower therefore signals higher affinity. What is called IC50 is the concentration at which inhibition is half-maximal. A low value points to higher potency.

Results on one molecule are retold here after PMC3485383 (Biochemistry, 2012).

Assay [1] deals with T1, cytochrome P450 2B4 (Oryctolagus cuniculus, UniProt P00178, H226Y).
T1 sequence (P00178 28-491 H226Y): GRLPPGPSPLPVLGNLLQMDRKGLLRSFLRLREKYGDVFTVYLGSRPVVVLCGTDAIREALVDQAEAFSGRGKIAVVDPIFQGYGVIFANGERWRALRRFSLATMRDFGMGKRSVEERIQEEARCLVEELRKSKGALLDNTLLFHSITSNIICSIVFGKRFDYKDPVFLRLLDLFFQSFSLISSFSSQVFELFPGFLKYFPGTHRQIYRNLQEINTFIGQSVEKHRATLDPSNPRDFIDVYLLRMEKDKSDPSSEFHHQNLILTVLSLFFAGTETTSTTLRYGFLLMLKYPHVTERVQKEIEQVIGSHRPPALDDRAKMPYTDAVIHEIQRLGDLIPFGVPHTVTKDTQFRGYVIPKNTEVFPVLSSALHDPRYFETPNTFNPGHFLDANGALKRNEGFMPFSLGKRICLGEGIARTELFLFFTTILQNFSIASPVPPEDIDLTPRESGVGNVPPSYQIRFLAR
Briefly: X-ray crystal structure. Type of assay: binding.

Assay [2] concerns the target T2, cytochrome P450 2B6 (Homo sapiens, UniProt P20813, K262R/Y226H).
T2 sequence (P20813 29-491 Y226H/K262R): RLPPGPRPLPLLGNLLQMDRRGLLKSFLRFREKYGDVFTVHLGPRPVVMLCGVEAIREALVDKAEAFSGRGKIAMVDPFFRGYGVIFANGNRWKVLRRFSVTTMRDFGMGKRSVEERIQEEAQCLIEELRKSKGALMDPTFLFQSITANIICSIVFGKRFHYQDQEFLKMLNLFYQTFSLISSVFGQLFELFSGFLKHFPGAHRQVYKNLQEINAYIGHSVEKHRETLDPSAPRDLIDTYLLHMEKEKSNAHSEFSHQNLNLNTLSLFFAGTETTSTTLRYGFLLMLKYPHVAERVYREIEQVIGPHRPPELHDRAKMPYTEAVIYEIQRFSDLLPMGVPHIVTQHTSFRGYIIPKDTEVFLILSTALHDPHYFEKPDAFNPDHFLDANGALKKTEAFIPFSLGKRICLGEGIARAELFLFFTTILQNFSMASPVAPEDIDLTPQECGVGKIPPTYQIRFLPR
Briefly: X-ray crystal structure. The class given is biochemical.

As for `CCOC(=O)C1=C(COCCN)NC(C)=C(C(=O)OC)C1c1ccccc1Cl` (centres unmarked) [amlodipine], in assay [1], the Kd was 2060 nM. This molecule registered an IC50 in assay [2] of 1600 nM.
